Experimental data taken from the kinase profiling compilation of Christmann-Franck et al. (2016).
Several values for one entry are separate records, joined by “and”; a condition that tells them apart may be missing. Identical values can stand only once.

How the values were obtained:
Assay in all cases: KINOMEscan competition binding
Details in all cases: compound 10.0 µM
[1] = test system: KIT (human), P10721 [D816H]
MAPK8 (human) = MAPK8 (human) (UniProt P45983)
MAST1 (human) = MAST1 (human) (UniProt Q9Y2H9)
FGFR2 (human) = FGFR2 (human) (UniProt P21802)
MAP2K2 (human) = MAP2K2 (human) (UniProt P36507)
BRAF (human) = BRAF (human) (UniProt P15056)
NTRK2 (human) = NTRK2 (human) (UniProt Q16620)
CDK16 (human) = CDK16 (human) (UniProt Q00536)
CDC42BPA (human) = CDC42BPA (human) (UniProt Q5VT25)
NTRK3 (human) = NTRK3 (human) (UniProt Q16288)
RPS6KA4 KD1 (human) = RPS6KA4 KD1 (human) (UniProt O75676)
LATS1 (human) = LATS1 (human) (UniProt O95835)
MAPK9 (human) = MAPK9 (human) (UniProt P45984)
ALK (human) = ALK (human) (UniProt Q9UM73)
PKN3 (M.tuberculosis) = PKN3 (M.tuberculosis) (UniProt Q6P5Z2)
CSNK2A1 (human) = CSNK2A1 (human) (UniProt P68400)
PAK3 (human) = PAK3 (human) (UniProt O75914)
CDK11B (human) = CDK11B (human) (UniProt P21127)
EIF2AK1 (human) = EIF2AK1 (human) (UniProt Q9BQI3)
MAPK3 (human) = MAPK3 (human) (UniProt P27361)
CSNK1A1 (human) = CSNK1A1 (human) (UniProt P48729)
CSNK2A2 (human) = CSNK2A2 (human) (UniProt P19784)
CDK8 (human) = CDK8 (human) (UniProt P49336)
PAK1 (human) = PAK1 (human) (UniProt Q13153)
RPS6KB1 (human) = RPS6KB1 (human) (UniProt P23443)
TEK (human) = TEK (human) (UniProt Q02763)
CLK1 (human) = CLK1 (human) (UniProt P49759)
TESK1 (human) = TESK1 (human) (UniProt Q15569)
STK33 (human) = STK33 (human) (UniProt Q9BYT3)
FGFR1 (human) = FGFR1 (human) (UniProt P11362)
SGK3 (human) = SGK3 (human) (UniProt Q96BR1)
PRKAA1 (human) = PRKAA1 (human) (UniProt Q13131)
FRK (human) = FRK (human) (UniProt P42685)
MAPKAPK5 (human) = MAPKAPK5 (human) (UniProt Q8IW41)
MAP3K2 (human) = MAP3K2 (human) (UniProt Q9Y2U5)
SGK1 (human) = SGK1 (human) (UniProt O00141)
WNK3 (human) = WNK3 (human) (UniProt Q9BYP7)
[2] = test system: EGFR (human), P00533 [L858R]
WNK1 (human) = WNK1 (human) (UniProt Q9H4A3)

Sequence of PRKAA1 (human) (Q13131 whole entry, looked up): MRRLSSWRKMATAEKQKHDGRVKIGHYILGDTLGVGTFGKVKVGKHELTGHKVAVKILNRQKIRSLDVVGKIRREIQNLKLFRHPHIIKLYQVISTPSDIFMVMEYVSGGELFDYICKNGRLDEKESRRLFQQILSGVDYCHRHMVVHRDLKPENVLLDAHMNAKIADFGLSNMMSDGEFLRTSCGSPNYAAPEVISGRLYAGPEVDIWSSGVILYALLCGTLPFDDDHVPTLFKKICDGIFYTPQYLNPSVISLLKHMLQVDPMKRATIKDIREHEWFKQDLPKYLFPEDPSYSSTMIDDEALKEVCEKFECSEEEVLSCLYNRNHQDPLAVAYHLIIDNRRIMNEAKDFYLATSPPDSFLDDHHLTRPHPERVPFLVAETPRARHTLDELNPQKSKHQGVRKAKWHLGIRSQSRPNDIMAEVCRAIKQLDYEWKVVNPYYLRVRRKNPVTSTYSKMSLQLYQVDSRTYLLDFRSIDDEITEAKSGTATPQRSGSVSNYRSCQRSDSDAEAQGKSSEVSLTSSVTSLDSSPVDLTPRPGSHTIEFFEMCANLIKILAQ
Sequence of CDK16 (human) (Q00536 whole entry, looked up): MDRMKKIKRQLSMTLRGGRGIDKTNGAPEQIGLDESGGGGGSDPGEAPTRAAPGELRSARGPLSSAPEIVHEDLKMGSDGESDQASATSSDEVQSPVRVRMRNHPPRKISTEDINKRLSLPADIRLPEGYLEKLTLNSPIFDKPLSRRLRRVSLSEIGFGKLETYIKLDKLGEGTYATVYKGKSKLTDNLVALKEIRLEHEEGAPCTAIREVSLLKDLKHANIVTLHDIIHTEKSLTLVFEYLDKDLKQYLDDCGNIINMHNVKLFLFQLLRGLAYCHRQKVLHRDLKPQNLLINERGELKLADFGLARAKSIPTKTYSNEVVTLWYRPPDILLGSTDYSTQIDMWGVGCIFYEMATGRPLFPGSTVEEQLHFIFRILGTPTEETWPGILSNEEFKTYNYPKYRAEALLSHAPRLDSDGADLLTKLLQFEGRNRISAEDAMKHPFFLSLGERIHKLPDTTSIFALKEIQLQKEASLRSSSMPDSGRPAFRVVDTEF
Sequence of FGFR2 (human) (P21802 whole entry, looked up): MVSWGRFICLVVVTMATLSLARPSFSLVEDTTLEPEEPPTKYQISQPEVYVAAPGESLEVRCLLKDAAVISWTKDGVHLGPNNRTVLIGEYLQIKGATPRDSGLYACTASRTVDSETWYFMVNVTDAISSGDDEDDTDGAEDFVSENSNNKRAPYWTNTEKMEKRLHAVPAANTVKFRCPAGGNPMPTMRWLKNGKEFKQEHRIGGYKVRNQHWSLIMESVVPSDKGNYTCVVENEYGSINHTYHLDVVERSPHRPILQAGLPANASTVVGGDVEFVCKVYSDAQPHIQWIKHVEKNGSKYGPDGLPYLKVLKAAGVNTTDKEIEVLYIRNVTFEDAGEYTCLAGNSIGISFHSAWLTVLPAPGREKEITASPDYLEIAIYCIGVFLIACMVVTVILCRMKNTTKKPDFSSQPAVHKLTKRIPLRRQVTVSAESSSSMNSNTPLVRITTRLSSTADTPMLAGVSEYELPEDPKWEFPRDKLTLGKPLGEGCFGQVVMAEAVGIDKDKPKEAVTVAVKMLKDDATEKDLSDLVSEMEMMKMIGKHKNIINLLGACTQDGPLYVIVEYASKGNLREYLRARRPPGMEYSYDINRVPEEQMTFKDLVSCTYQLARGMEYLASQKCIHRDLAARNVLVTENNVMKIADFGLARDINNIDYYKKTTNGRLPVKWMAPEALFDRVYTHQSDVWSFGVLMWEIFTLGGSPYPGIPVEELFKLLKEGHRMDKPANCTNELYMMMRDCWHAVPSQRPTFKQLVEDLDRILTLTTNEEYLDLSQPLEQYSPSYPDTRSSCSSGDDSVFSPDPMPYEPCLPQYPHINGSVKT
Sequence of LATS1 (human) (O95835 whole entry, looked up): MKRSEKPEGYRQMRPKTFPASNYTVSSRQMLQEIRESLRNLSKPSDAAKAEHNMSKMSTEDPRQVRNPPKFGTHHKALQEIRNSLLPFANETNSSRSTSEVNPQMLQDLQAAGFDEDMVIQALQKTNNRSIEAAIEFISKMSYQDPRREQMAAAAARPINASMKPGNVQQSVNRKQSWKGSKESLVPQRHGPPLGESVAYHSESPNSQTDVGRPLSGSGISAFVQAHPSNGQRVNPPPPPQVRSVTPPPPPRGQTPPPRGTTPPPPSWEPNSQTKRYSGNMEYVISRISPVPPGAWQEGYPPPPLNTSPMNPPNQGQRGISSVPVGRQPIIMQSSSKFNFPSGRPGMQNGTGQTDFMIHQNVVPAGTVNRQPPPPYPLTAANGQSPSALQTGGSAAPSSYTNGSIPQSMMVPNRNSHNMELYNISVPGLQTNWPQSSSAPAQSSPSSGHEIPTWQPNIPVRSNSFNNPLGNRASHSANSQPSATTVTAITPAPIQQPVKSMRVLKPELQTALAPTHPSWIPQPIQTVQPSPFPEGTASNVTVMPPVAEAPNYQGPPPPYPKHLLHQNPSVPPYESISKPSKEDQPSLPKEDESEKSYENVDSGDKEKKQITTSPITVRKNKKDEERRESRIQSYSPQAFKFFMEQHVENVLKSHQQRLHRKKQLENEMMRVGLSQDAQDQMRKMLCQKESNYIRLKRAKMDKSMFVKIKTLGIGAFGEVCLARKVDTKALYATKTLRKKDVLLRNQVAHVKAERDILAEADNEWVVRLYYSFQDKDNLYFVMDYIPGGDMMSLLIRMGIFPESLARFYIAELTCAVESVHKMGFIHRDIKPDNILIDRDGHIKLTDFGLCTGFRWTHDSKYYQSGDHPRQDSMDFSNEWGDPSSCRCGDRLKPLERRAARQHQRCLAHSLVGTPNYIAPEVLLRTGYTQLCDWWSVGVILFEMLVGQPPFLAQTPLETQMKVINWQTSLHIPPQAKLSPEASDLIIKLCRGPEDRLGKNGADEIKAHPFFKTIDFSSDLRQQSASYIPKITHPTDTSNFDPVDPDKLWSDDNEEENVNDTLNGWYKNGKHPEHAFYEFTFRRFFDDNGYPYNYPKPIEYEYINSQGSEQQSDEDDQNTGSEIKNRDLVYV
Sequence of MAPK3 (human) (P27361 whole entry, looked up): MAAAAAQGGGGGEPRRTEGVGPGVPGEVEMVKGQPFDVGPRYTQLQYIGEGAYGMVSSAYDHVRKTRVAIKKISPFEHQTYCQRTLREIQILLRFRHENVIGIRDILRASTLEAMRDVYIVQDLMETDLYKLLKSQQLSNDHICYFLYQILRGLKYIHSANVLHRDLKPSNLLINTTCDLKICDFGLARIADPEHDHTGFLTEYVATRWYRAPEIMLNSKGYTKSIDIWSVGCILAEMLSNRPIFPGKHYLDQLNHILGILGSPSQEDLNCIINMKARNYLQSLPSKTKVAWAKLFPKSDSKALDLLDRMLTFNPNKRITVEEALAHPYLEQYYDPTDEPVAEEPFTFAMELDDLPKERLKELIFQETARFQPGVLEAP
Sequence of RPS6KA4 KD1 (human) (O75676 whole entry, looked up): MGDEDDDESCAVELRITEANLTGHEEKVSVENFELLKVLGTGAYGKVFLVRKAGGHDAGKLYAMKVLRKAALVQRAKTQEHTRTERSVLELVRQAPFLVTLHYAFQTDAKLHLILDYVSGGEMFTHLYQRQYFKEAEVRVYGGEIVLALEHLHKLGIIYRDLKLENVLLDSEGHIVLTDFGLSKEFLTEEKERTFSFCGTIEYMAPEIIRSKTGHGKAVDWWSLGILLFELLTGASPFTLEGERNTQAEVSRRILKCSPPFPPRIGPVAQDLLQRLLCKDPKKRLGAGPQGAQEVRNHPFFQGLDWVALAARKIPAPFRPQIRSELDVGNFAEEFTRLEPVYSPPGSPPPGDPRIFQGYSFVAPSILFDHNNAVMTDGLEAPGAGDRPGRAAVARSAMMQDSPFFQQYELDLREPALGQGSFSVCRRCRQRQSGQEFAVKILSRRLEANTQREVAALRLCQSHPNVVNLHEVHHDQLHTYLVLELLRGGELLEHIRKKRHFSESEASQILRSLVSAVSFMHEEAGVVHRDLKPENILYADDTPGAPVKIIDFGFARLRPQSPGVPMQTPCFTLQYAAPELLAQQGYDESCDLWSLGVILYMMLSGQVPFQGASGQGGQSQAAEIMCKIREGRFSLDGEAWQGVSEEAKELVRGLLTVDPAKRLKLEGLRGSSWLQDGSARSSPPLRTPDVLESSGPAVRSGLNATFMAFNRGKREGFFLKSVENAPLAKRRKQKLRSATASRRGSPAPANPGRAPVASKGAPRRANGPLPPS
Sequence of FGFR1 (human) (P11362 whole entry, looked up): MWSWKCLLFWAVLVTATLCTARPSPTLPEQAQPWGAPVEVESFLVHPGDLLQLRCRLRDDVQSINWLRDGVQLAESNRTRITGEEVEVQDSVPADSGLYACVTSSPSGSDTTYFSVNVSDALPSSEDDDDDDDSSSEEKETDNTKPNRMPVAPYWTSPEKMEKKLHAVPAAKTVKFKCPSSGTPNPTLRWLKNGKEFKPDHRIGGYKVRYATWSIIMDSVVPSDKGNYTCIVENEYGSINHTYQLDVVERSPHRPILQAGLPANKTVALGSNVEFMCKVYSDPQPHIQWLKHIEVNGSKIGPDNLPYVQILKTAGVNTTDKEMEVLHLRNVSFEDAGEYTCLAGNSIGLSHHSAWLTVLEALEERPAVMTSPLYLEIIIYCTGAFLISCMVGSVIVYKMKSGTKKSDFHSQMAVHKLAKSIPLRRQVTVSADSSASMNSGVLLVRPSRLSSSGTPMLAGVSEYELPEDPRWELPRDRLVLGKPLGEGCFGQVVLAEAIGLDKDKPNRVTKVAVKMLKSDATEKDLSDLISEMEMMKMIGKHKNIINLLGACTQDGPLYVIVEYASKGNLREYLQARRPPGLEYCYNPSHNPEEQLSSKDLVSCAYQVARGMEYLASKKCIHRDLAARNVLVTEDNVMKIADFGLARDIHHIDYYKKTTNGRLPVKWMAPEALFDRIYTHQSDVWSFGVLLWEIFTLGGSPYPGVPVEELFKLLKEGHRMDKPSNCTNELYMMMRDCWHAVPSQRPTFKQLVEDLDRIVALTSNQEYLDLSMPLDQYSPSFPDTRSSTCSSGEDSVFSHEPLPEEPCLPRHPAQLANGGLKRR

Compound | kinase still bound, per cent of control [1] [%] | kinase still bound, per cent of control (MAPK8 (human)) [%] | kinase still bound, per cent of control (MAST1 (human)) [%] | kinase still bound, per cent of control (FGFR2 (human)) [%] | kinase still bound, per cent of control (MAP2K2 (human)) [%] | kinase still bound, per cent of control (BRAF (human)) [%] | kinase still bound, per cent of control (NTRK2 (human)) [%] | kinase still bound, per cent of control (CDK16 (human)) [%] | kinase still bound, per cent of control (CDC42BPA (human)) [%] | kinase still bound, per cent of control (NTRK3 (human)) [%] | kinase still bound, per cent of control (RPS6KA4 KD1 (human)) [%] | kinase still bound, per cent of control (LATS1 (human)) [%] | kinase still bound, per cent of control (MAPK9 (human)) [%] | kinase still bound, per cent of control (ALK (human)) [%] | kinase still bound, per cent of control (PKN3 (M.tuberculosis)) [%] | kinase still bound, per cent of control (CSNK2A1 (human)) [%] | kinase still bound, per cent of control (PAK3 (human)) [%] | kinase still bound, per cent of control (CDK11B (human)) [%] | kinase still bound, per cent of control (EIF2AK1 (human)) [%] | kinase still bound, per cent of control (MAPK3 (human)) [%] | also measured
N#C/C(=C1/Nc2ccccc2S1)c1ccnc(NCCc2cccnc2)n1 | 72 | 0 | 100 | 100 | 17 | 14 | 56 | 44 | 83 | 69 | 100 | 100 | 0.25 | 100 | 4.6 | 0.4 | 100 | 96 | 100 | 100 | kinase still bound, per cent of control (CSNK1A1 (human)): 9.8%; kinase still bound, per cent of control (CSNK2A2 (human)): 1%; kinase still bound, per cent of control (CDK8 (human)): 100%; kinase still bound, per cent of control (PAK1 (human)): 77%; kinase still bound, per cent of control (RPS6KB1 (human)): 41%; kinase still bound, per cent of control (TEK (human)): 100%; kinase still bound, per cent of control (CLK1 (human)): 69%; kinase still bound, per cent of control (TESK1 (human)): 87%; kinase still bound, per cent of control (STK33 (human)): 86%; kinase still bound, per cent of control (FGFR1 (human)): 98%; kinase still bound, per cent of control (SGK3 (human)): 100%; kinase still bound, per cent of control (PRKAA1 (human)): 100%; kinase still bound, per cent of control (FRK (human)): 100%; kinase still bound, per cent of control (MAPKAPK5 (human)): 100%; kinase still bound, per cent of control (MAP3K2 (human)): 100%
CNC(=O)Nc1ccc(-c2nc(N3CC4CCC(C3)O4)c3cnn(C4CCC5(CC4)OCCO5)c3n2)cc1 | 86 | 91 | 95 | 92 | 100 | 100 | 100 | 100 | 100 | 93 | 90 | 95 | 85 | 42 | 94 | 80 | 99 | 100 | 100 | 97 | kinase still bound, per cent of control (SGK1 (human)): 100%; kinase still bound, per cent of control (WNK3 (human)): 100%; kinase still bound, per cent of control [2]: 53%; kinase still bound, per cent of control (WNK1 (human)): 95%; kinase still bound, per cent of control (CSNK1A1 (human)): 100%; kinase still bound, per cent of control (CSNK2A2 (human)): 100%; kinase still bound, per cent of control (CDK8 (human)): 100%; kinase still bound, per cent of control (PAK1 (human)): 100%; kinase still bound, per cent of control (RPS6KB1 (human)): 100%; kinase still bound, per cent of control (TEK (human)): 100%; kinase still bound, per cent of control (CLK1 (human)): 29%; kinase still bound, per cent of control (TESK1 (human)): 80%; kinase still bound, per cent of control (STK33 (human)): 82%; kinase still bound, per cent of control (FGFR1 (human)): 100%; kinase still bound, per cent of control (SGK3 (human)): 100%; kinase still bound, per cent of control (PRKAA1 (human)): 94%; kinase still bound, per cent of control (FRK (human)): 68%; kinase still bound, per cent of control (MAPKAPK5 (human)): 100%; kinase still bound, per cent of control (MAP3K2 (human)): 95%
COc1cc2c(Nc3ccc(NC(=O)c4ccccc4)cc3)ncnc2cc1OCCCN1CCOCC1 | 69 | 67 | 100 | 89 | 0.1 | 100 | 17 | 64 | 85 | 98 | 100 | 100 | 27 | 26 | 37 | 87 | 87 | 16 | 20 | 100 | kinase still bound, per cent of control [2]: 8.8%; kinase still bound, per cent of control (CSNK1A1 (human)): 63%; kinase still bound, per cent of control (CSNK2A2 (human)): 100%; kinase still bound, per cent of control (CDK8 (human)): 100%; kinase still bound, per cent of control (PAK1 (human)): 82%; kinase still bound, per cent of control (RPS6KB1 (human)): 7.4%; kinase still bound, per cent of control (TEK (human)): 33%; kinase still bound, per cent of control (CLK1 (human)): 100%; kinase still bound, per cent of control (TESK1 (human)): 59%; kinase still bound, per cent of control (STK33 (human)): 67%; kinase still bound, per cent of control (FGFR1 (human)): 94%; kinase still bound, per cent of control (SGK3 (human)): 100%; kinase still bound, per cent of control (PRKAA1 (human)): 62%; kinase still bound, per cent of control (FRK (human)): 82%; kinase still bound, per cent of control (MAPKAPK5 (human)): 100%; kinase still bound, per cent of control (MAP3K2 (human)): 28%
COc1cc2ncnc(Nc3cccc(Cl)c3)c2cc1OC | 59 | 38 | 79 | 99 | 25 | 64 | 80 | 90 | 77 | 87 | 100 | 100 | 18 | 25 | 100 | 19 | 25 | 86 | 65 | 88 | kinase still bound, per cent of control (SGK1 (human)): 68%; kinase still bound, per cent of control (WNK3 (human)): 78%; kinase still bound, per cent of control [2]: 0.05%; kinase still bound, per cent of control (WNK1 (human)): 71%; kinase still bound, per cent of control (CSNK1A1 (human)): 35%; kinase still bound, per cent of control (CSNK2A2 (human)): 16%; kinase still bound, per cent of control (CDK8 (human)): 100%; kinase still bound, per cent of control (PAK1 (human)): 85%; kinase still bound, per cent of control (RPS6KB1 (human)): 63%; kinase still bound, per cent of control (TEK (human)): 97%; kinase still bound, per cent of control (CLK1 (human)): 59%; kinase still bound, per cent of control (TESK1 (human)): 100%; kinase still bound, per cent of control (STK33 (human)): 73%; kinase still bound, per cent of control (FGFR1 (human)): 87%; kinase still bound, per cent of control (SGK3 (human)): 65% and 84%; kinase still bound, per cent of control (PRKAA1 (human)): 100%; kinase still bound, per cent of control (FRK (human)): 29%; kinase still bound, per cent of control (MAPKAPK5 (human)): 9.9%; kinase still bound, per cent of control (MAP3K2 (human)): 30%
